Among the data in the supplement of paper PMC10307832 are relative viability values, retold here.

What all share (assay): relative viability (nuclei count vs DMSO), 5 days (fraction); higher = more cells survive
Compound in the experiment “Pemetrexed + Tozasertib”: Nc1nc2[nH]cc(CCc3ccc(C(=O)N[C@@H](CCC(=O)O)C(=O)O)cc3)c2c(=O)[nH]1 [Pemetrexed] + Cc1cc(Nc2cc(N3CCN(C)CC3)nc(Sc3ccc(NC(=O)C4CC4)cc3)n2)n[nH]1 [Tozasertib] (partner 0.1 µM)
The method, boiled down:
(§1)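 The day after seeding in 1536-well plates, lung cancer cell lines were treated by pin tool with a single drug, or with a fixed anchor-drug dose together with five library-drug doses (not always all listed) in √10 steps. After 5 days, a combined fix-and-stain solution (final 0.05% Triton X-100, 1% formaldehyde, 1 ug/ml Hoechst) was added. Nuclei counted on 4× images gave relative viability as treated counts over vehicle counts, reported as the median of duplicate plates.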

Compound in the experiment “Pemetrexed + Navitoclax”: Nc1nc2[nH]cc(CCc3ccc(C(=O)N[C@@H](CCC(=O)O)C(=O)O)cc3)c2c(=O)[nH]1 [Pemetrexed] + CC1(C)CCC(c2ccc(Cl)cc2)=C(CN2CCN(c3ccc(C(=O)NS(=O)(=O)c4ccc(N[C@H](CCN5CCOCC5)CSc5ccccc5)c(S(=O)(=O)C(F)(F)F)c4)cc3)CC2)C1 [Navitoclax] (partner 0.5 µM)
The procedure, abridged:
as §1

Compound in the experiment “Idelalisib + Linsitinib”: CC[C@H](Nc1ncnc2[nH]cnc12)c1nc2cccc(F)c2c(=O)n1-c1ccccc1 [Idelalisib] + C[C@]1(O)C[C@@H](c2nc(-c3ccc4ccc(-c5ccccc5)nc4c3)c3c(N)nccn32)C1 [Linsitinib] (partner 1 µM)
The method, boiled down:
as §1

Compound in the experiment “Idelalisib + Alpelisib”: CC[C@H](Nc1ncnc2[nH]cnc12)c1nc2cccc(F)c2c(=O)n1-c1ccccc1 [Idelalisib] + Cc1nc(NC(=O)N2CCC[C@H]2C(N)=O)sc1-c1ccnc(C(C)(C)C(F)(F)F)c1 [Alpelisib] (partner 2 µM)
The procedure, abridged:
as §1

On to LCLC-97TM1, for which the relative viability with Pemetrexed + Tozasertib (first compound 0.002 µM) came to 0.184; with Pemetrexed + Tozasertib (first compound 0.006325 µM), 0.245; in the experiment with Pemetrexed + Tozasertib (first compound 0.02 µM), 0.315; in the experiment with Pemetrexed + Tozasertib (first compound 0.06325 µM) it was 0.254; in the experiment with Pemetrexed + Tozasertib (first compound 0.2 µM), 0.284; with Pemetrexed + Navitoclax (first compound 0.002 µM), 0.393. Moreover, the relative viability in the experiment with Pemetrexed + Navitoclax (first compound 0.006325 µM) stood at 0.279; in the experiment with Pemetrexed + Navitoclax (first compound 0.02 µM), 0.674; with Pemetrexed + Navitoclax (first compound 0.06325 µM) it was 0.375; with Pemetrexed + Navitoclax (first compound 0.2 µM) it was 0.394; in the experiment with Idelalisib + Linsitinib (first compound 0.04 µM), 0.209; in the experiment with Idelalisib + Linsitinib (first compound 0.1265 µM), 0.184. Also, the relative viability with Idelalisib + Linsitinib (first compound 1.265 µM) was determined as 0.175; with Idelalisib + Linsitinib (first compound 4 µM), 0.156; with Idelalisib + Alpelisib (first compound 0.04 µM), 0.274; in the experiment with Idelalisib + Alpelisib (first compound 0.1265 µM), 0.211; in the experiment with Idelalisib + Alpelisib (first compound 1.265 µM), 0.284; with Idelalisib + Alpelisib (first compound 4 µM), 0.168.

Take NCI-H2228: the relative viability with Pemetrexed + Tozasertib (first compound 0.002 µM) is 0.318; in the experiment with Pemetrexed + Tozasertib (first compound 0.02 µM), 0.266; with Pemetrexed + Tozasertib (first compound 0.06325 µM), 0.209; with Pemetrexed + Tozasertib (first compound 0.2 µM), 0.173; in the experiment with Pemetrexed + Navitoclax (first compound 0.002 µM), 0.739; with Pemetrexed + Navitoclax (first compound 0.006325 µM), 0.87. Also, the relative viability with Pemetrexed + Navitoclax (first compound 0.02 µM) was 0.964; with Pemetrexed + Navitoclax (first compound 0.06325 µM), 0.696; with Pemetrexed + Navitoclax (first compound 0.2 µM), 0.368; with Idelalisib + Linsitinib (first compound 0.04 µM), 0.66; with Idelalisib + Linsitinib (first compound 0.1265 µM), 0.68; with Idelalisib + Linsitinib (first compound 0.4 µM), 0.586. Further, the relative viability in the experiment with Idelalisib + Linsitinib (first compound 1.265 µM) is 0.768; with Idelalisib + Linsitinib (first compound 4 µM) it was 0.511; with Idelalisib + Alpelisib (first compound 0.04 µM), 1.07; in the experiment with Idelalisib + Alpelisib (first compound 0.1265 µM) it was 0.739; with Idelalisib + Alpelisib (first compound 0.4 µM) it was 0.774; in the experiment with Idelalisib + Alpelisib (first compound 1.265 µM), 0.672. For the same cell line, the relative viability in the experiment with Idelalisib + Alpelisib (first compound 4 µM) was found to be 0.631.

Consider COR-L23, for which the relative viability in the experiment with Pemetrexed + Tozasertib (first compound 0.002 µM) amounted to 0.229; with Pemetrexed + Tozasertib (first compound 0.006325 µM) it was 0.196; with Pemetrexed + Tozasertib (first compound 0.02 µM), 0.197; with Pemetrexed + Tozasertib (first compound 0.06325 µM) it was 0.12; in the experiment with Pemetrexed + Tozasertib (first compound 0.2 µM), 0.105; with Pemetrexed + Navitoclax (first compound 0.002 µM), 0.991. Also, the relative viability in the experiment with Pemetrexed + Navitoclax (first compound 0.006325 µM) turned out to be 0.964; in the experiment with Pemetrexed + Navitoclax (first compound 0.02 µM) it was 1.04; with Pemetrexed + Navitoclax (first compound 0.06325 µM), 0.323; with Pemetrexed + Navitoclax (first compound 0.2 µM), 0.194; in the experiment with Idelalisib + Linsitinib (first compound 0.04 µM), 1; with Idelalisib + Linsitinib (first compound 0.1265 µM), 1.04. The relative viability with Idelalisib + Linsitinib (first compound 0.4 µM) is 0.745; with Idelalisib + Linsitinib (first compound 1.265 µM), 0.822; with Idelalisib + Linsitinib (first compound 4 µM), 0.864; with Idelalisib + Alpelisib (first compound 0.04 µM), 0.698; in the experiment with Idelalisib + Alpelisib (first compound 0.1265 µM), 0.769; in the experiment with Idelalisib + Alpelisib (first compound 0.4 µM), 0.634. Besides, the relative viability with Idelalisib + Alpelisib (first compound 1.265 µM) was 0.69; in the experiment with Idelalisib + Alpelisib (first compound 4 µM), 0.763.

As for EMC-BAC-2, the relative viability with Pemetrexed + Tozasertib (first compound 0.002 µM) turned out to be 0.327; with Pemetrexed + Tozasertib (first compound 0.006325 µM), 0.255; with Pemetrexed + Tozasertib (first compound 0.02 µM), 0.296; in the experiment with Pemetrexed + Tozasertib (first compound 0.06325 µM), 0.278; with Pemetrexed + Tozasertib (first compound 0.2 µM) it was 0.244; with Pemetrexed + Navitoclax (first compound 0.002 µM), 1.14. The relative viability is 1.09 in the experiment with Pemetrexed + Navitoclax (first compound 0.006325 µM); 1.21 in the experiment with Pemetrexed + Navitoclax (first compound 0.02 µM); 1.2 in the experiment with Pemetrexed + Navitoclax (first compound 0.06325 µM); 1.09 with Pemetrexed + Navitoclax (first compound 0.2 µM); 0.868 with Idelalisib + Linsitinib (first compound 0.04 µM); 0.8 with Idelalisib + Linsitinib (first compound 0.1265 µM). The relative viability with Idelalisib + Linsitinib (first compound 0.4 µM) amounted to 0.757; with Idelalisib + Linsitinib (first compound 1.265 µM), 0.818; with Idelalisib + Linsitinib (first compound 4 µM) it was 0.748; in the experiment with Idelalisib + Alpelisib (first compound 0.04 µM), 0.689; with Idelalisib + Alpelisib (first compound 0.1265 µM), 0.736; with Idelalisib + Alpelisib (first compound 0.4 µM), 0.674. The figures for the relative viability in the experiment with Idelalisib + Alpelisib (first compound 1.265 µM) and with Idelalisib + Alpelisib (first compound 4 µM) were 0.707 and 0.684, respectively.
